Among the targets are Melanocortin receptor 3 (Homo sapiens, UniProt P41968); Vasopressin V1a receptor (Homo sapiens, UniProt P37288); Vasopressin V2 receptor (Homo sapiens, UniProt P30518).
Test [1] addresses T1, 5-hydroxytryptamine receptor 1A (Homo sapiens, UniProt P08908).
T1 sequence (P08908 whole entry): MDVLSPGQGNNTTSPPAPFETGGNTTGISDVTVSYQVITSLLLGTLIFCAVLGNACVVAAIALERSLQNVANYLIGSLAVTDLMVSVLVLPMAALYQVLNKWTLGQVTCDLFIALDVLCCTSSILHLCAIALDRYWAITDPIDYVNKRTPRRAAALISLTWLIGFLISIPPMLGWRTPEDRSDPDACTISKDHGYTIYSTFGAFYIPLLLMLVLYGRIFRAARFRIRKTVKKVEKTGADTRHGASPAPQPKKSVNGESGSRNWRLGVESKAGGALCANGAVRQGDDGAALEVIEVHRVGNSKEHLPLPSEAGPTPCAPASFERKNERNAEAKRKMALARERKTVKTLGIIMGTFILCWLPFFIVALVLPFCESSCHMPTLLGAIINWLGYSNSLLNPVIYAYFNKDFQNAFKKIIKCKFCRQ
Type of test: functional, cell-based.

Test [2] has as its target Neuronal acetylcholine receptor subunit alpha-4 (Homo sapiens, UniProt P43681).
Test [3] addresses T2, Type-1 angiotensin II receptor (Homo sapiens, UniProt P30556).
T2 sequence (P30556 whole entry): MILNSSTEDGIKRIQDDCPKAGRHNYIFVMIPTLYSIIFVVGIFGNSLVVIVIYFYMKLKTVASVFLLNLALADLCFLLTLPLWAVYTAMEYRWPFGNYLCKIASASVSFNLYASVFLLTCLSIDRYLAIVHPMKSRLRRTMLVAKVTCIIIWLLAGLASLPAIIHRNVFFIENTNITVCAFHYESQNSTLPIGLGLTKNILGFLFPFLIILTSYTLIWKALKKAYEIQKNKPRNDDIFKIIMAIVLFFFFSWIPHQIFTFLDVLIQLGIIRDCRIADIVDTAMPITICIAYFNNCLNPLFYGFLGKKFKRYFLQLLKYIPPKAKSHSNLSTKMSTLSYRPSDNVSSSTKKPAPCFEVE

For test [4], the target named is Beta-2 adrenergic receptor (Homo sapiens, UniProt P07550). In kind it is functional, cell-based.
A further test addresses T3, B2 bradykinin receptor (Homo sapiens, UniProt P30411).
T3 sequence (P30411 whole entry): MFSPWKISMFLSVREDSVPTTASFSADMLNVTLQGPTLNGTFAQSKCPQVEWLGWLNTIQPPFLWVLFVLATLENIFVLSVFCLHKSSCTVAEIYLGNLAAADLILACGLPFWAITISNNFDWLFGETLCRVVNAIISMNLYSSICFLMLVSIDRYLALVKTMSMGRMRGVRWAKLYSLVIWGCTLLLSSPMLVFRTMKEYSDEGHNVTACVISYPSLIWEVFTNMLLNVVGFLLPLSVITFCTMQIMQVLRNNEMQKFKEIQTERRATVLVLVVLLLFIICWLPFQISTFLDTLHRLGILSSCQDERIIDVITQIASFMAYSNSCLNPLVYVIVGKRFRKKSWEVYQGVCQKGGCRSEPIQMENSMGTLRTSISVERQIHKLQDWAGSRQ

For another test, the target named is Histamine H2 receptor (Homo sapiens, UniProt P25021). Type of test: functional, cell-based.
Test [5] deals with Gamma-aminobutyric acid receptor subunit alpha-1 (Rattus norvegicus, UniProt P62813). Type of test: functional.
Test [6] deals with T4, Amine oxidase [flavin-containing] A (Homo sapiens, UniProt P21397).
T4 sequence (P21397 whole entry): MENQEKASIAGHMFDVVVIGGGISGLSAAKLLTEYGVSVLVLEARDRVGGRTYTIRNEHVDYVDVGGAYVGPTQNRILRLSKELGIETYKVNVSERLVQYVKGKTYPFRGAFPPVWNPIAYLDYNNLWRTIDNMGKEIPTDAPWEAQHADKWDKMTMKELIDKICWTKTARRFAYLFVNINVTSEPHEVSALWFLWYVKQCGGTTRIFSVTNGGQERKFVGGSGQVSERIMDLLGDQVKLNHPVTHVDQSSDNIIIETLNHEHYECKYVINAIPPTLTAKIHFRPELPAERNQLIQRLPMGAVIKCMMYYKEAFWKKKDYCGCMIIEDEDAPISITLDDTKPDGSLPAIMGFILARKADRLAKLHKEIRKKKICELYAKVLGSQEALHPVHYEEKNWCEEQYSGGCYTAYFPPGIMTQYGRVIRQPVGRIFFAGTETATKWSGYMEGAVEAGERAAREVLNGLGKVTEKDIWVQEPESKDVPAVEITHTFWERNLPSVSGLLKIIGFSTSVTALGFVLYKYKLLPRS
In kind it is functional.

The target of test [7] is T5, Alpha-1A adrenergic receptor (Homo sapiens, UniProt P35348).
T5 sequence (P35348 whole entry): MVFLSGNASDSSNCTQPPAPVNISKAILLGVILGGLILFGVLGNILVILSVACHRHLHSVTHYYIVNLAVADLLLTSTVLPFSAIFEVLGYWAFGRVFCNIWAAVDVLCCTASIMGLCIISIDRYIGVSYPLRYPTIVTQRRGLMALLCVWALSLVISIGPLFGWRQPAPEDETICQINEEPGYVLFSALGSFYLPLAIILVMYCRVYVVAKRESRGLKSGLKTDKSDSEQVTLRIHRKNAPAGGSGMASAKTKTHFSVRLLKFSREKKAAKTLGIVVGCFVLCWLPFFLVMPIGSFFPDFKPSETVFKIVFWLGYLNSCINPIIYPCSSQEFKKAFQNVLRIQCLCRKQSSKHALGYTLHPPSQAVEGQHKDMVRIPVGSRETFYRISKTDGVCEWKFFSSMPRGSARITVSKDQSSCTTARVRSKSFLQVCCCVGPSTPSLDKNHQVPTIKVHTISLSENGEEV
In kind it is functional, cell-based.
Further: assay procedure not described here.

Sequence of Gamma-aminobutyric acid receptor subunit alpha-1 (P62813 whole entry): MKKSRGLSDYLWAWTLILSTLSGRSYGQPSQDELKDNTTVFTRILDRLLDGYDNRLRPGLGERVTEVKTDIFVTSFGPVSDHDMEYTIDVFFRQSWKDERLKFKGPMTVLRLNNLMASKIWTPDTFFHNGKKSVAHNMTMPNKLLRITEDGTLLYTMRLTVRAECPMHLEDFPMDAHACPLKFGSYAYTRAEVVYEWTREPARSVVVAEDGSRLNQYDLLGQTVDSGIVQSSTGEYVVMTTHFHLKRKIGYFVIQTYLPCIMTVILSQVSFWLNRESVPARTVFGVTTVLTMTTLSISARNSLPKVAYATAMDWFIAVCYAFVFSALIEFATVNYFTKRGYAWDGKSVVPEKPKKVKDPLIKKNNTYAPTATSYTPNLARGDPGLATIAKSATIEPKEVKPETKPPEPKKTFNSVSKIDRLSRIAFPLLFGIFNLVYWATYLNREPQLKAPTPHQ
Sequence of Histamine H2 receptor (P25021 whole entry): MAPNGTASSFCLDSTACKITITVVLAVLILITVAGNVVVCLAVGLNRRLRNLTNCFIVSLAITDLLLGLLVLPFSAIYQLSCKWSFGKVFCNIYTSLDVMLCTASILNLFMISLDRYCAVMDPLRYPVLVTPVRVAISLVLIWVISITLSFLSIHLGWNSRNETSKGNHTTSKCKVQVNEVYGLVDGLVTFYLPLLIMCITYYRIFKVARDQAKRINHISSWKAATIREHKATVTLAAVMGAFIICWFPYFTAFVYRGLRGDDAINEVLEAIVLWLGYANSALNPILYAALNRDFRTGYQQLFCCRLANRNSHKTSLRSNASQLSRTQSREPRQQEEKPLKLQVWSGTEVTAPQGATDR
Sequence of Melanocortin receptor 3 (P41968 whole entry): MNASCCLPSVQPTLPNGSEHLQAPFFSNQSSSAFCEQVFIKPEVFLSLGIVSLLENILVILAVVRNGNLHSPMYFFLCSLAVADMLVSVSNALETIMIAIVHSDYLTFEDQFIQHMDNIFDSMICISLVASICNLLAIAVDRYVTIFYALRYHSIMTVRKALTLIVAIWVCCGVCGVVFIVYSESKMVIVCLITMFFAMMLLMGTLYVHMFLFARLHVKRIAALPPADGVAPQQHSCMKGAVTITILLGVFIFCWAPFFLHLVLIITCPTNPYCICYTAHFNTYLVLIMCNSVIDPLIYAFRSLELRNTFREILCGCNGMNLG
Sequence of Vasopressin V2 receptor (P30518 whole entry): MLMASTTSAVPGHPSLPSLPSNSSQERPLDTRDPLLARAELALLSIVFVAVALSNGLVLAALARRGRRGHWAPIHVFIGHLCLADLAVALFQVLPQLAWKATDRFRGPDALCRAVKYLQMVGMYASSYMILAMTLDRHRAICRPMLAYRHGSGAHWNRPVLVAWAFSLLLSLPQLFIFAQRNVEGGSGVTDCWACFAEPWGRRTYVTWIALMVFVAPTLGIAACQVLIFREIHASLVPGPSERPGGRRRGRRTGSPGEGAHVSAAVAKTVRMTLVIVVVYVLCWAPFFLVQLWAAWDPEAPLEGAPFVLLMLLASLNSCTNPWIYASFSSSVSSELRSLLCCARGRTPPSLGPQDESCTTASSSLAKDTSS
Sequence of Beta-2 adrenergic receptor (P07550 whole entry): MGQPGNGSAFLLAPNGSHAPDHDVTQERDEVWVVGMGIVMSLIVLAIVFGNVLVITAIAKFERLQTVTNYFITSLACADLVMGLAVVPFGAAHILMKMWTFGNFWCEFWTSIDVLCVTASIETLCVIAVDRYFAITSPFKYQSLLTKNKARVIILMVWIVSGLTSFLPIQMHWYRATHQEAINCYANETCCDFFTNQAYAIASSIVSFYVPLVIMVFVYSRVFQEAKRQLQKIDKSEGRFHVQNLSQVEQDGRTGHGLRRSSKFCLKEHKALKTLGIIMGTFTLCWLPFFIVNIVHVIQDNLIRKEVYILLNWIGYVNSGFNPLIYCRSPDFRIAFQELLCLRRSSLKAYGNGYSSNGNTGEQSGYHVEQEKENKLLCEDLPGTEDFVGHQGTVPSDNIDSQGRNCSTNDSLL
Sequence of Neuronal acetylcholine receptor subunit alpha-4 (P43681 whole entry): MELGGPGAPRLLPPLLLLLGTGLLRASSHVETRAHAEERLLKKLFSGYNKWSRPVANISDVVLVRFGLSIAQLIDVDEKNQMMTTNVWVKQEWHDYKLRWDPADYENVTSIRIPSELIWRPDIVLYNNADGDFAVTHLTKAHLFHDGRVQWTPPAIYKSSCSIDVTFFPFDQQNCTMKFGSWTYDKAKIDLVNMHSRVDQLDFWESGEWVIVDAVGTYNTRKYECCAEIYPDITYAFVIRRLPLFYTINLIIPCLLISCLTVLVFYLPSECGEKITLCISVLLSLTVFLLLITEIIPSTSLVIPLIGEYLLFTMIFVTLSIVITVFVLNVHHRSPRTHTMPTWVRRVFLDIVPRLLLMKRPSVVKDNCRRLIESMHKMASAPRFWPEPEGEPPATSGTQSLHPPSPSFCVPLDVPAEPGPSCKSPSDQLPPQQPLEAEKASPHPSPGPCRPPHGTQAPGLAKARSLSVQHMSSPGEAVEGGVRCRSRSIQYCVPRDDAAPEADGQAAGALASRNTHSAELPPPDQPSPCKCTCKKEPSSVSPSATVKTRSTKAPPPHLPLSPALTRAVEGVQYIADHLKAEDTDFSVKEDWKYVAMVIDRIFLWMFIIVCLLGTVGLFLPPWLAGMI
Sequence of Vasopressin V1a receptor (P37288 whole entry): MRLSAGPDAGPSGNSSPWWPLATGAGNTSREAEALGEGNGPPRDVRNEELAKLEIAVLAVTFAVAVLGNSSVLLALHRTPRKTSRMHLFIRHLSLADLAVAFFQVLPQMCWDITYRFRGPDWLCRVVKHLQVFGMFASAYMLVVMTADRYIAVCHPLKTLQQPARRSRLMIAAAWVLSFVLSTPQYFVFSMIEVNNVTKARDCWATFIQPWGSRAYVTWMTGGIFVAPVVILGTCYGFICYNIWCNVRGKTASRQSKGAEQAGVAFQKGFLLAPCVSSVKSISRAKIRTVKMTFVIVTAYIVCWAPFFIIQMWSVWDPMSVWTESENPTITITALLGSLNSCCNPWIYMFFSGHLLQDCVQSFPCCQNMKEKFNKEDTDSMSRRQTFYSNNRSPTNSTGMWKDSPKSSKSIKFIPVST

As usually defined, the AC50 is the midpoint of the concentration-response curve, whichever way the signal moves. Low readings indicate activity at low concentration, high ones activity only at high concentration. Turning to `CC(=N)N1CC[C@H](SC2=C(C(=O)O)N3C(=O)[C@H]([C@@H](C)O)[C@H]3C2)C1`, the AC50 on Melanocortin receptor 3 is > 300 µM; in test [1], > 300 µM; in test [2] it was 170 µM; in test [3], > 300 µM; on Vasopressin V1a receptor, > 300 µM; in [4], > 300 µM.
Regarding `CC(/C=C1\SC(=S)N(CC(=O)O)C1=O)=C\c1ccccc1`, the concentration at half-maximal activity (AC50) at Melanocortin receptor 3 was > 30 µM; in test [1], > 30 µM; at B2 bradykinin receptor, > 10 µM; in [2] it was 28 µM; in test [3], 1.5 µM; on Histamine H2 receptor, > 30 µM. Further, the half-maximal activity concentration (AC50) on Vasopressin V1a receptor was 28 µM; at Vasopressin V2 receptor, > 30 µM; in [4], > 30 µM; in test [5], > 30 µM.
With `O=C1CN2Cc3c(ccc(Cl)c3Cl)N=C2N1` [ANAGRELIDE], the AC50 is > 30 µM at Melanocortin receptor 3; > 30 µM in [1]; > 30 µM on B2 bradykinin receptor; > 10 µM in test [2]; > 30 µM in test [3]; > 10 µM at Histamine H2 receptor. Also, the AC50 on Vasopressin V1a receptor is > 30 µM; at Vasopressin V2 receptor, > 30 µM; in test [4], > 30 µM; in test [5] it was > 10 µM.
Turning to `CCc1oc2ccccc2c1C(=O)c1cc(Br)c(O)c(Br)c1` [BENZBROMARONE], the AC50 at Melanocortin receptor 3 was > 30 µM; in test [1], > 30 µM; at B2 bradykinin receptor it was > 30 µM; in test [2], > 30 µM; in test [3], 16 µM; on Histamine H2 receptor it was > 10 µM. For the same compound, the concentration at half-maximal activity (AC50) (at Vasopressin V1a receptor; at Vasopressin V2 receptor; in [4]; in test [5]) was > 30 µM each time.
For the compound `C=C(C)[C@@H]1CCC(C)=C[C@H]1c1c(O)cc(CCCCC)cc1O` [CANNABIDIOL], the AC50 at Melanocortin receptor 3 is 25 µM; in test [1], > 10 µM; in test [2] it was > 30 µM; in test [3], > 30 µM; at Vasopressin V1a receptor, > 30 µM; in [4], > 30 µM. For the same compound, in test [5], the concentration at half-maximal activity (AC50) was > 30 µM.
With `[H]/N=C(\N/C(=N/[H])NCCCCCCNC(=N)NC(=N)Nc1ccc(Cl)cc1)Nc1ccc(Cl)cc1` [CHLORHEXIDINE], the AC50 at Melanocortin receptor 3 is 0.49 µM; in [1] it was > 30 µM; in [2], > 30 µM; in [3], > 10 µM; on Histamine H2 receptor it was > 10 µM; at Vasopressin V1a receptor, 14.7 µM. The results for the concentration at half-maximal activity (AC50) (on Vasopressin V2 receptor; in [4]; in [5]) were 3.9 µM, > 30 µM and > 10 µM, respectively.
On to `CC1(C)O[C@@H]2C[C@H]3[C@@H]4C[C@H](F)C5=CC(=O)C=C[C@]5(C)[C@H]4[C@@H](O)C[C@]3(C)[C@]2(C(=O)CO)O1` [FLUNISOLIDE], for which the half-maximal activity concentration (AC50) (at Melanocortin receptor 3; in test [1]; in test [2]; in [3]; in test [4]; in test [5]) was > 30 µM in each case.
As to `Nc1nc(O)c2ncn(COC(CO)CO)c2n1` [GANCICLOVIR], the AC50 (at Melanocortin receptor 3; in [1]; at B2 bradykinin receptor; in test [2]; in [3]; at Histamine H2 receptor) was > 30 µM in each case. For the same compound, the AC50 (on Vasopressin V2 receptor; in [4]; in test [5]) was > 30 µM each time.
For `C[C@H]1Oc2cc(cnc2N)-c2c(nn(C)c2C#N)CN(C)C(=O)c2ccc(F)cc21` [LORLATINIB], the AC50 (on Melanocortin receptor 3; in test [1]; in test [2]; in [3]; at Vasopressin V1a receptor; in [4]) was > 30 µM in each case. Also, the AC50 in test [5] is > 30 µM.
With `CCOc1cc(CC(=O)N[C@@H](CC(C)C)c2ccccc2N2CCCCC2)ccc1C(=O)O` [REPAGLINIDE], the AC50 (on Melanocortin receptor 3; in test [1]; in [2]; in [3]; on Vasopressin V1a receptor; in test [4]) was > 30 µM throughout. In addition, the concentration at half-maximal activity (AC50) in [5] was > 30 µM.
On to `CCCN(CCc1cccs1)[C@H]1CCc2c(O)cccc2C1` [ROTIGOTINE], for which the AC50 is > 30 µM on Melanocortin receptor 3; > 10 µM in test [1]; > 30 µM in [2]; > 30 µM in test [3]; > 30 µM at Vasopressin V1a receptor; > 30 µM in [4]. The AC50 in [5] is > 30 µM.
Take `CC[C@H]1OC(=O)[C@H](C)[C@@H](O[C@H]2C[C@@](C)(OC)[C@@H](O)[C@H](C)O2)[C@H](C)[C@@H](O[C@@H]2O[C@H](C)C[C@H](N(C)C)[C@H]2O)[C@](C)(O)C[C@@H](C)/C(=N\OCOCCOC)[C@H](C)[C@@H](O)[C@]1(C)O` [ROXITHROMYCIN]: the half-maximal activity concentration (AC50) (on Melanocortin receptor 3; in test [1]; in test [2]; in test [3]; in test [4]; in test [5]) was > 30 µM in each case.
Turning to `CC(C)N(CCCCOCC(=O)NS(C)(=O)=O)c1cnc(-c2ccccc2)c(-c2ccccc2)n1` [SELEXIPAG], the AC50 on Melanocortin receptor 3 was > 30 µM; in test [1], > 30 µM; on B2 bradykinin receptor, > 10 µM; in test [2], > 30 µM; at Histamine H2 receptor, > 30 µM; on Vasopressin V1a receptor, > 30 µM. The AC50 (at Vasopressin V2 receptor; in test [4]; in [5]) was > 30 µM throughout.
Take `CC1(C)O[C@@H]2[C@@H](CO[C@@]3(COS(N)(=O)=O)OC(C)(C)O[C@@H]23)O1` [TOPIRAMATE]: the half-maximal activity concentration (AC50) is > 30 µM in test [6]; > 30 µM on Melanocortin receptor 3; > 10 µM in test [1]; > 30 µM on B2 bradykinin receptor; > 10 µM in test [2]; > 30 µM in test [3]. In addition, the concentration at half-maximal activity (AC50) on Histamine H2 receptor was > 10 µM; at Vasopressin V1a receptor it was > 10 µM; at Vasopressin V2 receptor it was > 30 µM; in test [7], > 30 µM; in [5], > 10 µM.

Source of the values: ChEMBL document CHEMBL5291721, “A preclinical secondary pharmacology resource illuminates target-adverse drug reaction associations of marketed drugs” (Nat Commun, 2023).
